Test results published in a melting point compilation (Tetko et al.; mined from patent text by program, amines drawn as free bases though some values may be those of a salt).

Structure (SMILES) | melting point
N#Cc1cc(-c2nc3ccccc3s2)ccc1N | 207 to 211 °C
C=CCc1cc(-c2nc(C)no2)ccc1O | 135 to 137 °C
O=C1NC(=O)C(c2ccc3ccccc3c2)O1 (centres undefined) | 187 to 188 °C
CC(=O)Nc1c(C(=O)C2CCCCC2)[nH]c2cc(Cl)ccc12 | 198 °C
CC(=S)NCC1CN(c2ccc(N3CCSCC3)c(F)c2)C(=O)O1 (centres undefined) | 155 to 156 °C
N#CC(O)COc1ccccc1 (centres undefined) | 59 °C
CNS(=O)(=O)Cc1ccc(NC(=N)c2ccc3[nH]cc(CCN)c3c2)cc1 | 63 to 65 °C
NCCCc1c[nH]c(-c2ccc(F)cc2)c1-c1ccncc1 | 198 to 199 °C
CS(=O)(=O)c1ccc(C=C2/C(=N/O)CCc3ccccc32)cc1 | 165 to 166 °C
Cc1cc(C(O)(C(F)(F)F)C(F)(F)F)cc(C)c1OCC(=O)NCc1ccccc1 | 142 to 144 °C
Cc1ncc([N+](=O)[O-])n1CCN1C(=O)CCC1=O | 147 to 148 °C
CCCS(=O)(=O)Nc1c(C)c(C)c2c(c1C)C(c1ccc(C(C)C)cc1)CO2 (centres undefined) | 133 to 134 °C
CC(C)N1CC2CC(C1)CN(S(=O)(=O)c1ccccc1)C2 | 85.5 to 86.5 °C
CCOC(=O)NC1Cc2ccccc2C1Sc1ccccc1 (centres undefined) | 60.5 to 62 °C
Cc1oc(-c2ccco2)nc1COc1ccc(C=O)cc1Br | 146 to 147 °C
O=C1CCn2c1c(Sc1ccccc1)c1ccccc12 | 179 to 181 °C
O=C1CC(c2ccc(-c3ccc(Br)cc3)cc2)Cc2ccccc21 (centres undefined) | 156 to 158 °C
O=C(Cc1ccccn1)N1CCC(C2c3ccc(Cl)cc3CCc3cccnc32)CC1 (centres undefined) | 81.7 to 82 °C
O=C(CCCCCOc1ccc(OCc2ccccc2)cc1)C(F)(F)F | 59 to 60 °C
Cc1c(C)c2c(c(C)c1N)C(c1ccc(C3OCCO3)cc1)CO2 (centres undefined) | 125 to 136 °C
CC(C)c1cccc(C(C)C)c1NC(=S)NC(C)(C)C(C)(C)C | 161 to 162 °C
CCCCNC(=O)C(=O)NCCCCCBr | 109 to 110 °C
CC(C)(C)OC(=O)CN1CCC(CNC(=O)c2cc(Cl)c(N)[nH]c2=O)CC1 | 200 to 203 °C

Structure (SMILES) | melting point
CCOC(=O)C1=NN(C(=O)c2ccccc2)C(C(=O)OCC)=NN1C(=O)c1ccccc1 | 134 °C
O=C(O)c1ccccc1Sc1cccc(OCc2ccc3ccccc3n2)c1 | 169 to 171 °C
CC(C)(C)OC(=O)N1CCC(Oc2ccc(Cc3cc4cc(C#N)ccc4o3)cc2)CC1 | 144 to 146 °C
Nc1nc2ccccc2c2c1ncn2CCCCNC(=O)Oc1ccc2ccccc2c1 | 154 to 155 °C
O=C(O)Cc1ccc2c(c1)CCc1ccccc1S2 | 111 to 112 °C
O=C1NC(=O)C(c2ccco2)N1 (centres undefined) | 145 to 146 °C
CON=C(C#N)C1=CCCN(OC(=O)Nc2ccccc2)C1 | 128 to 130 °C
CN1C(=O)C2(CCCC2(C)C)c2ccccc21 (centres undefined) | 99 to 101 °C
CCC(CC)(CO)NC(N)=S | 148 to 151 °C
FC(F)(F)c1cnc(CNC(=S)c2ccccc2Cl)c(Cl)c1 | 102 to 103 °C
C=CCN(CC=C)Cc1nc(-c2ncn3c2[C@@H]2CCN2C(=O)c2c(Cl)cccc2-3)no1 | 165 to 170 °C
CNC(=O)c1ccc(C(F)(F)F)c(N)c1 | 114 to 115 °C
CNC(=O)Nc1snc(OC(C)C)c1C#N | 238 °C
CCCCn1c(C)cc(=O)n(C)c1=O | 181 to 182 °C
O=C1c2cccc([N+](=O)[O-])c2C2CC3(CCN12)OCCO3 (centres undefined) | 206 °C
N#Cc1ccc(NC(=O)CN2CCC(Cc3ccc(F)cc3)CC2)cc1 | 113 to 116 °C
CCC1(CC)C(=O)N(C(C)(C)C)CC(C)(C)N1OC(=O)C(c1ccccc1)c1ccccc1 | 109 °C
Cc1cc(C)c2ncc(NC(=O)c3cc(C(C)C)c(O)c(C(C)C)c3)c(-c3ccccc3Cl)c2c1 | 237 to 238 °C
Nc1ccc(N2CCCCC2)c(C(=O)O)c1 | 232 to 235 °C
Nc1c(Br)cc(F)c(Cl)c1F | 62 °C
CCOc1cccn2nc(-c3ccccc3)c(-c3ccc(=O)n(C(C)C)n3)c12 | 157 to 158 °C
O=S1N=CC(NCc2ccncc2)=N1 (centres undefined) | 129 to 130 °C
CCCCCCCCCCCCOc1ccc(C(=O)c2ccccc2)cc1 | 63 to 64 °C

Structure (SMILES) | melting point
COc1ccc2c(c1)COc1ccc(OCc3ccc4ccc(Cl)cc4n3)cc1C2SCCC(=O)O (centres undefined) | 177 to 179 °C
Cc1nc[nH]c1CSCCNC(=N)NC#N | 125 to 127 °C
O=CN1CCc2cc(OCC3CO3)ccc2C1 (centres undefined) | 78 to 79 °C
O=[N+]([O-])c1sc(-n2cccc2)nc1Cl | 138 to 139 °C
C=CCn1c(-c2cccnc2)n[nH]c1=O | 120 to 125 °C
CCCCCCc1cnc(-c2ccc(CCCCC)c(F)c2)nc1 | 30 °C
C=CC(=O)c1ccc(O)c(Cl)c1Cl | 135 to 137 °C
O=C1NC(=O)c2ccccc2C1=CNc1ccc(-c2ccccc2)cc1 | 261 to 262 °C
CCc1c(C)nc2ccc(C)cn2c1=O | 154 to 156 °C
CCCN=C(NCCC)c1cc(Cl)ccc1[N+](=O)[O-] | 63 to 64 °C
CCc1c(C)c(=O)oc2cc(-c3ccc(C(C)C)cc3)cc(OC)c12 | 83 °C
CCOC(=O)c1cc2c(nc1C)CCCCC2 | 53 to 54 °C
Nc1nc2ccccc2n1CCCN1CCCCC1 | 179 to 181 °C
c1ccc(-c2ncc3[nH]c4c(c3n2)CCCC4)cc1 | 197 to 198 °C
O=C(O)CCc1ccccc1OCCC(c1ccccc1)(c1ccccc1)c1ccccc1 | 118 to 120 °C
Cn1ncnc1COc1nn2c(-c3ccccc3F)nncc2c1-c1cccc(F)c1 | 176 °C
ClCCOc1ccc(C2=C(c3ccccc3)CCCc3cc(OC4CCCCO4)ccc32)cc1 (centres undefined) | 153 to 155 °C
NC(=S)Nc1ccccc1C1CC1 | 152 to 154 °C
Cc1nnnn1/C=C\SC(c1ccccc1)(c1ccccc1)c1ccccc1 | 208 to 210 °C
CC1(C)C=C(N2CCCC2=O)c2cc(Cl)ccc2O1 | 123 to 125 °C
CCOC(=O)C1(Nc2cc(Cl)cc(Cl)c2)CC(C(=O)O)Nc2cc(Cl)cc(Cl)c21 (centres undefined) | 92 to 94 °C
COc1ccc(Cn2c(=O)[nH]c3ccc(C)cc3c2=O)cc1 | 263 to 265 °C

Second part, the compound after the results:

melting point | Structure (SMILES)
170 to 171 °C | CC(=O)Oc1coc(-c2cccc([N+](=O)[O-])c2)cc1=O
46.5 to 47.5 °C | COc1ccccc1OCCN(Cc1ccccc1)C(=O)CCc1c[nH]c2ccccc12
213 to 215 °C | Cc1cccc(Nc2nc(N)ncc2S(N)(=O)=O)c1
90 to 91 °C | COc1ccc(CS[C@@H]2C[C@@H](C(=O)OCc3ccccc3)N(S(=O)(=O)c3ccc4ccccc4c3)C2)cc1
176 to 179 °C | CN(C)C(=O)c1cc2c(nc(C3CC3)n2C)c2c1CCC(c1ccccc1)O2 (centres undefined)
162 °C | O=C1CCCN(Cc2ccc([N+](=O)[O-])cc2Cl)c2ncccc21
73.5 to 76.5 °C | CC(C(=O)N(C)C)n1ccc(-c2cc(Cl)ccc2Cl)n1 (centres undefined)
89 to 90 °C | Cc1cccc(C)c1N(CCCc1cccnc1)C(=O)Cn1ccnc1C
125 to 126 °C | Cc1cccc(CC(=O)O)c1OCc1nc(OC(C)C)c(C(=O)NCc2ccc(Cl)cc2Cl)s1
131 °C | CCOc1ccc(C=CC(=O)c2c(O)cc(OCC)cc2OCC)cc1
120 to 121 °C | COC(=O)c1ccc(Cl)c(C(=O)NOCc2ccc(Cl)cc2)c1Cl
118 to 120 °C | COc1ccccc1NC(=O)Nc1ccc(N2CCN(C(=O)Nc3ccc(OCCO)cc3C(F)(F)F)CC2)cc1
110 to 112 °C | O=C(CCCCCNC(=O)c1ccccc1S)Nc1cccnc1
203 °C | CC(C)(C)OC(=O)CN(C(=O)CNC(=O)c1cc2ccccc2[nH]1)c1ccccc1
101 to 108 °C | CCN(CC)c1ccc(/C=C/C(=O)CC(=O)/C=C/c2ccc(OC)c(O)c2)c(O)c1
258 to 264 °C | O=C(COc1ccc(Cl)c(Cl)c1)Nc1cscc1C(=O)O
125 °C | COCCOc1ccc2c(C(C[N+](=O)[O-])c3cccc(NC(=O)OCc4ccccc4)c3C)c[nH]c2c1 (centres undefined)
89 °C | COc1ccc(C(=O)c2c(Cl)cccc2Cl)c(C)c1

melting point | Structure (SMILES)
82 to 83 °C | COC(=O)c1ccccc1C=Nc1cc(C)ccc1O
130 °C | CCOC(=O)c1ccc(OCC(=NO)c2ccc3c(c2)C(C)(C)CCC3(C)C)cc1O
174 to 175 °C | COc1cc2c3ccc(OC)c(OC)c3n(Cc3ccccc3)c2cc1OC
145 to 146 °C | O=C(c1ccccc1)c1cc2ccncc2n1S(=O)(=O)c1ccccc1
149 to 150 °C | C=C(C)COc1cc(C)c(NC(C)=O)c(C)c1C
219 to 220 °C | CCCOc1ccccc1-c1nc2nc(NN)ncc2c(=O)[nH]1
190 °C | COC(=O)Cn1c(C(=O)O)cc2ccccc21
140 to 142 °C | CCOC(=O)c1c(-c2ccccc2Cl)c2cc(C(C)C)ccc2n(C)c1=O
116 °C | COC(=O)c1ccc(F)cc1NS(C)(=O)=O
193 to 194 °C | CC1(C)OC(c2ccc(S(N)(=O)=O)c(Cl)c2)=C(c2ccccc2)C1=O
127 to 129 °C | COc1cc2c(cc1OC)CN(CCCCNC(=O)c1cc(Br)cc(OC)c1OCCF)CC2
155 to 157 °C | COc1cc(OC)nc(NC(=O)NS(=O)(=O)c2ncccc2OS(=O)(=O)N(C)C)n1
58 to 60 °C | CON=C(C(=S)OC)c1ccccc1COc1ccccc1Cl
63 to 65 °C | COc1ccc(C=C2c3ccccc3C(=O)c3ccccc32)cc1OCC(=O)N1CCC(CO[N+](=O)[O-])CC1
112 to 114 °C | Cc1cc(F)ccc1C1=C(c2ccc(S(C)(=O)=O)cc2)CCC1
110 to 112 °C | COc1cc(OC)cc(N2CCN(C(=O)N(c3nc4ccccc4nc3OC)C(C)C)CC2)c1
153 to 154 °C | COC(=O)c1ccc(-n2c(C)nc3ccccc32)cc1
155 to 156 °C | COc1cc(OC)cc(-c2cc(=O)c3ccc(OCC(O)CNC(C)C)cc3o2)c1 (centres undefined)
